Laboratory results from patent publication US20100267561A1, “HERBICIDAL PYRIDAZINONE DERIVATIVES” (priority 2007, published 2010).

Experiments:
Type in all cases: in vivo
[1] = test system: barnyardgrass (Echinochloa crus-galli); experiment: Test B flooded paddy test plant response
Method in brief: (§1)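 Step one: raise plants to 2 leaves. Step two: flood pots 3 cm over the soil and apply compound into the water, keeping this depth. Step three: after 13–15 greenhouse days, score visually versus controls, 0–100, where 100 means complete control.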

rice (Oryza sativa) = experiment: Test B flooded paddy test plant response
Method in brief: as §1

[2] = test system: umbrella sedge (Cyperus difformis); experiment: Test B flooded paddy test plant response
Method in brief: as §1

[3] = test system: ducksalad (Heteranthera limosa); experiment: Test B flooded paddy test plant response
Method in brief: as §1

[4] = test system: pigweed (Amaranthus retroflexus); experiment: Test A pre-/postemergence plant response
Source text: (§2) Seeds of species selected from barnyardgrass (Echinochloa crus-galli), large crabgrass (Digitaria sanguinalis), giant foxtail (Setaria faberi), blackgrass (Alopecurus myosuroides), canarygrass (Phalaris minor), morningglory (Ipomoea coccinea), pigweed (Amaranthus retroflexus), velvetleaf (Abutilon theophrasti), wheat (Triticum aestivum), and corn (Zea mays) were planted into a blend of loam soil and sand and treated preemergence with a directed soil spray using test chemicals formulated in a non-phytotoxic solvent mixture which included a surfactant. At the same time these species were also treated with postemergence applications of test chemicals formulated in the same manner.
(§3) Plants ranged in height from 2 to 10 cm and were in the one- to two-leaf stage for the postemergence treatment. Treated plants and untreated controls were maintained in a greenhouse for approximately 10 days, after which time all treated plants were compared to untreated controls and visually evaluated for injury. Plant response ratings, summarized in Table A, are based on a 0 to 100 scale where 0 is no effect and 100 is complete control. A dash (-) response means no test results.

[5] = test system: barnyardgrass (Echinochloa crus-galli); experiment: Test A pre-/postemergence plant response
Source text: as §2, §3

[6] = test system: giant foxtail (Setaria faberi); experiment: Test A pre-/postemergence plant response
Source text: as §2, §3

corn (Zea mays) = experiment: Test A pre-/postemergence plant response
Source text: as §2, §3

[7] = test system: large crabgrass (Digitaria sanguinalis); experiment: Test A pre-/postemergence plant response
Source text: as §2, §3

[8] = test system: velvetleaf (Abutilon theophrasti); experiment: Test A pre-/postemergence plant response
Source text: as §2, §3

[9] = test system: wheat (Triticum aestivum); experiment: Test A pre-/postemergence plant response
Source text: as §2, §3

[10] = test system: morningglory (Ipomoea coccinea); experiment: Test A pre-/postemergence plant response
Source text: as §2, §3

[11] = test system: blackgrass (Alopecurus myosuroides); experiment: Test A pre-/postemergence plant response
Source text: as §2, §3

[12] = test system: canarygrass (Phalaris minor); experiment: Test A pre-/postemergence plant response
Source text: as §2, §3

[13] = test system: winter wheat (TRZAW, Triticum aestivum); experiment: Test G mixtures of Compound 26 with crop safeners, postemergence plant response; conditions: applied alone, 125 g a.i./ha
Experimental: (§4) This test evaluated the effect of mixtures of Compound 26 with commercial crop safeners cloquintocet-mexyl, mefenpyr-diethyl, and fenchlorazole-ethyl on three plant species. Seeds of winter wheat (TRZAW, Triticum aestivum), winter barley (HORVX, Hordeum vulgare), and wild oat (AVEFA, Avena fatua) (a weed) were planted into a silt loam soil. Plants from these seeds were treated postemergence using test chemicals formulated in a non-phytotoxic solvent mixture that included a surfactant. Plants ranged in height from 6 to 10 cm (2- to 3-leaf stage).
(§5) Plants were grown in a greenhouse using supplemental lighting to maintain a photoperiod of about 14 hours; daytime and nighttime temperatures were about 22-26° C. and 15-19° C., respectively. Balanced fertilizer was applied through the watering system. Treatments consisted of Compound 26 and the above mentioned safeners alone and in combination using a spray volume of 281 L/ha. Each treatment was replicated four times. Treated plants and controls were maintained in a greenhouse for 15 days, after which time all treated plants were compared to controls and visually evaluated. Plant response ratings were calculated as the means of the four replicates based on a scale of 0 to 100 where 0 is no effect and 100 is complete control and are summarized in Tables G1 to G3. Because the safeners alone caused no injury at the rates tested, the expected effect of a mixture of Compound 26 with a safener is the same as the observed effect of Compound 26 alone.
(§6) The highest application rate of each safener was tested alone to confirm the absence of herbicidal activity on the test species when appled postemergence at 125 g ai/ha. Therefore, an extrapolated result of zero for each safener alone at 16, 31, or 62 g ai/ha was used to calculate the mixture response of Compound 26 and these safener application rates.

[14] = test system: wild oat (AVEFA, Avena fatua); experiment: as above; conditions: applied alone, 125 g a.i./ha
Experimental: as §4, §5, §6

[15] = test system: winter barley (HORVX, Hordeum vulgare); experiment: as above; conditions: applied alone, 125 g a.i./ha
Experimental: as §4, §5, §6

[16] = Flood (flooded paddy test), 62 g ai/ha, scale 0 to 100, 0 no effect, 100 complete control
[17] = Flood (flooded paddy test), 125 g ai/ha, scale 0 to 100, 0 no effect, 100 complete control
[18] = Flood (flooded paddy test), 250 g ai/ha, scale 0 to 100, 0 no effect, 100 complete control
[19] = Flood, 31 g ai/ha, scale 0 to 100
[20] = Postemergence, 125 g ai/ha, 0 to 100 scale, 0 no effect, 100 complete control
[21] = Postemergence, 500 g ai/ha, 0 to 100 scale, 0 no effect, 100 complete control
[22] = Preemergence, 125 g ai/ha, 0 to 100 scale (0 no effect, 100 complete control)
[23] = Preemergence, 500 g ai/ha, 0 to 100 scale (0 no effect, 100 complete control)
[24] = Flood, 62 g ai/ha, scale 0 to 100
[25] = Postemergence, 31 g ai/ha, 0 to 100 scale, 0 no effect, 100 complete control
[26] = Preemergence, 31 g ai/ha, 0 to 100 scale, 0 is no effect, 100 is complete control

## CCn1ncc(O)c(-c2cn(-c3ccc(Cl)cc3)nc2C)c1=O [Compound 65]
[1]; [16]
  Plant response rating, Barnyardgrass: 0
[1]; [17]
  Plant response rating, Barnyardgrass: 0
[1]; [18]
  Plant response rating, Barnyardgrass: 0
[1]; [19]
  Plant response rating, Barnyardgrass: 0
Rice (Oryza sativa); [16]
  Plant response rating, Rice: 0
Rice (Oryza sativa); [17]
  Plant response rating, Rice: 0
Rice (Oryza sativa); [18]
  Plant response rating, Rice: 15
Rice (Oryza sativa); [19]
  Plant response rating, Rice: 0
[2]; [16]
  Plant response rating, Sedge, Umbrella: 0
[2]; [17]
  Plant response rating, Sedge, Umbrella: 0
[2]; [18]
  Plant response rating, Sedge, Umbrella: 80
[2]; [19]
  Plant response rating, Sedge, Umbrella: 0
[3]; [16]
  Plant response rating, Ducksalad: 0
[3]; [17]
  Plant response rating, Ducksalad: 0
[3]; [18]
  Plant response rating, Ducksalad: 40
[3]; [19]
  Plant response rating, Ducksalad: 0
[4]; [20]
  Plant response rating, Pigweed: 0
[4]; [21]
  Plant response rating, Pigweed: 0
[4]; [22]
  Plant response rating, Pigweed: 0
[4]; [23]
  Plant response rating, Pigweed: 0
[5]; [20]
  Plant response rating, Barnyardgrass: 0
[5]; [21]
  Plant response rating, Barnyardgrass: 0
[5]; [22]
  Plant response rating, Barnyardgrass: 0
[5]; [23]
  Plant response rating, Barnyardgrass: 0
[6]; [20]
  Plant response rating, Foxtail, Giant: 0
[6]; [21]
  Plant response rating, Foxtail, Giant: 20
[6]; [22]
  Plant response rating, Foxtail, Giant: 0
[6]; [23]
  Plant response rating, Foxtail, Giant: 90
Corn (Zea mays); [20]
  Plant response rating, Corn: 0
Corn (Zea mays); [21]
  Plant response rating, Corn: 0
Corn (Zea mays); [22]
  Plant response rating, Corn: 0
Corn (Zea mays); [23]
  Plant response rating, Corn: 0
[7]; [20]
  Plant response rating, Crabgrass, Large: 0
[7]; [21]
  Plant response rating, Crabgrass, Large: 20
[7]; [22]
  Plant response rating, Crabgrass, Large: 0
[7]; [23]
  Plant response rating, Crabgrass, Large: 0
[8]; [20]
  Plant response rating, Velvetleaf: 0
[8]; [21]
  Plant response rating, Velvetleaf: 0
[8]; [22]
  Plant response rating, Velvetleaf: 0
[8]; [23]
  Plant response rating, Velvetleaf: 0
[9]; [20]
  Plant response rating, Wheat: 0
[9]; [21]
  Plant response rating, Wheat: 0
[9]; [22]
  Plant response rating, Wheat: 0
[9]; [23]
  Plant response rating, Wheat: 0
[10]; [20]
  Plant response rating, Morningglory: 0
[10]; [21]
  Plant response rating, Morningglory: 0
[10]; [22]
  Plant response rating, Morningglory: 0
[10]; [23]
  Plant response rating, Morningglory: 0

## CCc1cc(-c2ccc(Cl)cc2)nn1-c1c(O)c(C)nn(C)c1=O [Compound 86]
[1]; [18]
  Plant response rating, Barnyardgrass: 40
[1]; [24]
  Plant response rating, Barnyardgrass: 0
Rice (Oryza sativa); [18]
  Plant response rating, Rice: 35
Rice (Oryza sativa); [24]
  Plant response rating, Rice: 30
[2]; [18]
  Plant response rating, Sedge, Umbrella: 55
[2]; [24]
  Plant response rating, Sedge, Umbrella: 0
[3]; [18]
  Plant response rating, Ducksalad: 65
[3]; [24]
  Plant response rating, Ducksalad: 30
[4]; [25]
  Plant response rating, Pigweed: 0
[4]; [20]
  Plant response rating, Pigweed: 0
[4]; [26]
  Plant response rating, Pigweed: 0
[4]; [22]
  Plant response rating, Pigweed: 0
[5]; [25]
  Plant response rating, Barnyardgrass: 100
[5]; [20]
  Plant response rating, Barnyardgrass: 100
[5]; [26]
  Plant response rating, Barnyardgrass: 50
[5]; [22]
  Plant response rating, Barnyardgrass: 100
[6]; [25]
  Plant response rating, Foxtail, Giant: 70
[6]; [20]
  Plant response rating, Foxtail, Giant: 90
[6]; [26]
  Plant response rating, Foxtail, Giant: 10
[6]; [22]
  Plant response rating, Foxtail, Giant: 100
[11]; [25]
  Plant response rating, Blackgrass: 80
[11]; [20]
  Plant response rating, Blackgrass: 100
[11]; [26]
  Plant response rating, Blackgrass: 50
[11]; [22]
  Plant response rating, Blackgrass: 90
Corn (Zea mays); [25]
  Plant response rating, Corn: 30
Corn (Zea mays); [20]
  Plant response rating, Corn: 90
Corn (Zea mays); [26]
  Plant response rating, Corn: 0
Corn (Zea mays); [22]
  Plant response rating, Corn: 40
[7]; [25]
  Plant response rating, Crabgrass, Large: 70
[7]; [20]
  Plant response rating, Crabgrass, Large: 100
[7]; [26]
  Plant response rating, Crabgrass, Large: 10
[7]; [22]
  Plant response rating, Crabgrass, Large: 90
[12]; [20]
  Plant response rating, Canarygrass: 100
[12]; [22]
  Plant response rating, Canarygrass: 100
[9]; [25]
  Plant response rating, Wheat: 20
[9]; [20]
  Plant response rating, Wheat: 50
[9]; [26]
  Plant response rating, Wheat: 0
[9]; [22]
  Plant response rating, Wheat: 40

## CC(C)Cc1cc(-c2ccc(Cl)cc2)nn1-c1c(O)cnn(C)c1=O [Compound 92]
[4]; [25]
  Plant response rating, Pigweed: 0
[4]; [20]
  Plant response rating, Pigweed: 0
[4]; [26]
  Plant response rating, Pigweed: 0
[4]; [22]
  Plant response rating, Pigweed: 0
[5]; [25]
  Plant response rating, Barnyardgrass: 0
[5]; [20]
  Plant response rating, Barnyardgrass: 80
[5]; [26]
  Plant response rating, Barnyardgrass: 0
[5]; [22]
  Plant response rating, Barnyardgrass: 20
[6]; [25]
  Plant response rating, Foxtail, Giant: 10
[6]; [20]
  Plant response rating, Foxtail, Giant: 60
[6]; [26]
  Plant response rating, Foxtail, Giant: 0
[6]; [22]
  Plant response rating, Foxtail, Giant: 50
[11]; [25]
  Plant response rating, Blackgrass: 0
[11]; [20]
  Plant response rating, Blackgrass: 50
[11]; [26]
  Plant response rating, Blackgrass: 0
[11]; [22]
  Plant response rating, Blackgrass: 0
Corn (Zea mays); [25]
  Plant response rating, Corn: 0
Corn (Zea mays); [20]
  Plant response rating, Corn: 20
Corn (Zea mays); [26]
  Plant response rating, Corn: 0
Corn (Zea mays); [22]
  Plant response rating, Corn: 20
[7]; [25]
  Plant response rating, Crabgrass, Large: 0
[7]; [20]
  Plant response rating, Crabgrass, Large: 10
[7]; [26]
  Plant response rating, Crabgrass, Large: 0
[7]; [22]
  Plant response rating, Crabgrass, Large: 20
[12]; [25]
  Plant response rating, Canarygrass: 0
[12]; [20]
  Plant response rating, Canarygrass: 30
[12]; [26]
  Plant response rating, Canarygrass: 0
[12]; [22]
  Plant response rating, Canarygrass: 10
[9]; [25]
  Plant response rating, Wheat: 0
[9]; [20]
  Plant response rating, Wheat: 30
[9]; [26]
  Plant response rating, Wheat: 0
[9]; [22]
  Plant response rating, Wheat: 0

## CCOC(=O)c1nc(C(Cl)(Cl)Cl)n(-c2ccc(Cl)cc2Cl)n1 [fenchlorazole-ethyl]
[13]
  TRZAW Obsd. (observed effect) plant response rating, scale 0 to 100: 0
[14]
  AVEFA Obsd. (observed effect) plant response rating, scale 0 to 100: 0
[15]
  HORVX Obsd. (observed effect) plant response rating, scale 0 to 100: 0

## CCOC(=O)C1=NN(c2ccc(Cl)cc2Cl)C(C)(C(=O)OCC)C1 (stereo not shown) [mefenpyr-diethyl]
[13]
  TRZAW Obsd. (observed effect) plant response rating, scale 0 to 100: 0
[14]
  AVEFA Obsd. (observed effect) plant response rating, scale 0 to 100: 0
[15]
  HORVX Obsd. (observed effect) plant response rating, scale 0 to 100: 0
